Target: T1, DCLK1 (Doublecortin-like kinase 1) (Homo sapiens, UniProt O15075)
T1 construct: kinase domain (KD)
T1 sequence (O15075 390-647 limits assumed): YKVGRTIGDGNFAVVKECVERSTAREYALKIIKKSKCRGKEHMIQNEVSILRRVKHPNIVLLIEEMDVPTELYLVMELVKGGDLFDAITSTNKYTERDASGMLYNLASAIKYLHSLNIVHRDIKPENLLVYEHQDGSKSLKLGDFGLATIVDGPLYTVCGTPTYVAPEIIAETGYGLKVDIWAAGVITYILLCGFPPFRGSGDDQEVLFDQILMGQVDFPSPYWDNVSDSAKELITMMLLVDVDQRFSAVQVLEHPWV
Assay: SPR (Biacore X-100, kinase domain immobilized on CM5 chip)
Assay type: binding

Work on `CCN1CCN(Cc2ccc(Nc3ncc(F)c(-c4cc(F)c5nc(C)n(C(C)C)c5c4)n3)nc2)CC1` [6ZV, Abemaciclib] yielded a Kd of 1.92 µM.
